Where a name gives a salt, the structure may show the parent alone.
Tests used:
arachidonic acid = test: Arachidonic Acid Antagonism Assay (AAAA); type: in vivo, mouse (Charles River male CF-1); settings: mice; for arachidonic acid antagonism (elevation of LD50 of arachidonic acid): IV, 15 min before sodium arachidonate, outside 95% confidence interval of control LD50
Method: While not necessary to determine arachidonic acid antagonism, the above assay has been modified as follows: Charles River male CF-1 mice weighing […] are treated IV with the test compound dissolved in 1.0% Tween-80 and 0.1% hydrochloric acid in distilled water. 0 2 ml total volume. Fifteen minutes later sodium arachidonate (90% pure) in physiological (normal) […] is injected into the tail vein. The LD50 is measured using the Spearman-Karber method with a log dose interval of 0.05 (N-6). Compounds which elevate the LD50 outside of the 95% confidence interval of the control LD50 are considered to be "active".

interleukin-1 = test: inhibition of interleukin-1 induced T cell proliferation assay; type: cell-based; settings: active = >30% at 10^-6 M
Excerpt: The inhibition of interleukin-1 induced T cell proliferation assay, Proc. Nat. […] Since people with arthritis make excess interleukin 1, compounds which inhibit the activity of interleukin 1 are useful in the treatment of arthritis. According to this procedure compounds which inhibit the activity of interleukin 1 greater that 30% at 10^-6 M are considered to be "active".

angiogenesis = test: fertile egg or chick embryo assay of Folkman (inhibition of angiogenesis / tumor growth); type: in vivo; settings: chick embryo; for inhibition of angiogenesis: 50 μg/10 μl with heparin, avascular zone 4 mm or greater
Method: According to this procedure compounds which are considered to be "active" (i.e, antiangiogenic) give an avascular zone of 4 mm or greater in some embryos when tested at 50 μg/10 μl in the presence of 50 μg/10 μ of heparin.

[1] = test system: MDA formation in rat brain synaptosomes; test: Malonyldialdehyde (MDA) Formation Assay (lipid peroxidation); type: biochemical; settings: active = 50% inhibition or more at 200 μM or less
Excerpt: The MDA assays of Buege and Aust, Methods in Enzymology, Fleisher and Packer Editors. Academic Press, 1978, New York, Vol LII, p 302-310 and Kohn and Liversedge, J. Pharmacol. Exp. Ther. 82. […] Since iipid peroxidation is involved in the pathophysiology of central nervous system trauma, compounds which inhibit MDA formation are useful in treating the conditions listed below.
While not necessary to determine MDA formation, the above assays have been modified as follows: rat brain synaptosomes are prepared as described in the Example about the conjugated diene assay, except that the final wash of the synaptosomes and final suspension are in physiological (normal) saline in which the pH has been adjusted to 7 0. The synaptosomes are incubated for 10 min at 37° in physiological (normal) saline pH 7.0 (total volume=100 ul) containing; 10 ul synaptosomal suspension. 10% DMSO plus or minus drug. 150 uM Fe^+++ and 50 uM Fe^++. The incubation is started by the rapid addition of iron to the otherwise complete reaction. The iron solutions are prepared fresh as ferric chloride and ferrous ammonium sulfate in argon-purged water. Following the 10 min incubation, the reaction is stopped by the addition of 500 ul ice-cold 12% trichloroacetic acid prepared in 0.5 N hydrochloric acid. Water (300 ul) is then added along with 100 ul of freshly prepared thiobarbituric acid (3.3% in 0.5N sodium hydroxide) and 10 ul of 5mM desferrioxamine. The sample is then heated in a boiling water bath for 20 minutes. The samples are cooled and centrifuged for 15 minutes at 1500 xg and the absorbance of the supernatant fraction is read at 532 nm. The % inhibition of MDA formation is calculated by dividing the absorbance of sample containing drug by the absorbance of samples incubated without drug. Reaction blanks are samples incubated in the absence of iron A compound that inhibits MDA formation by 50% or more at a concentration of 200μM or less is considered "active".

SMILES	inhibition of interleukin 1 (interleukin-1)	inhibition of angiogenesis (angiogenesis)	inhibition of MDA formation [1]	also measured
C[C@H]1C[C@@H]2[C@H]([C@@H](O)C[C@@]3(C)[C@H]2CC[C@]3(O)C(=O)CN2CCN(c3ccccn3)CC2)[C@@]2(C)C=CC(=O)C=C12 [Example 21, 11β,17α-dihydroxy-6α-methyl-21-[4-(2-pyridinyl)-1-piperazinyl]pregna-1,4-diene-3,20-dione]	demonstrate inhibition of interleukin 1	demonstrate inhibition of angiogenesis		arachidonic acid antagonism (elevation of LD50 of arachidonic acid) (arachidonic acid): demonstrate arachidonic acid antagonism; % of Embryos with 4 mm or Greater A vascular Zone (angiogenesis; 50 μg/10 μl in the presence of heparin): 91%
CN(CCN(C)c1ccccn1)CC(=O)[C@@]1(O)CC[C@H]2[C@@H]3CCC4=CC(=O)CC[C@]4(C)C3=CC[C@@]21C.Cl.Cl [Example 24, 17α-hydroxy-21-[methyl[2-(methyl-2-pyridinylamino)ethyl]amino]pregna-4,9(11)-diene-3,20-dione dihydrochloride]		demonstrate inhibition of angiogenesis		arachidonic acid antagonism (elevation of LD50 of arachidonic acid) (arachidonic acid): demonstrate arachidonic acid antagonism
COc1ccc(CCN(CC(=O)[C@@]2(O)CC[C@H]3[C@@H]4CCC5=CC(=O)CC[C@]5(C)C4=CC[C@@]32C)Cc2cc(OC)c(OC)c(OC)c2)cc1OC [Example 37, 17α-hydroxy-21-[[2-(3,4-dimethoxyphenyl)ethyl]-[3,4,5-trimethoxyphenyl)methyl]amino]pregna-4,9(11)diene-3,20-dione hydrochloride]	demonstrate inhibition of interleukin 1	demonstrate inhibition of angiogenesis		
C[C@]12CCC(=O)C=C1CC[C@@H]1C2=CC[C@@]2(C)[C@H]1CC[C@]2(O)C(=O)CN1CCN(c2cccc(N3CCCC3)n2)CC1 [Example 62, 17α-hydroxy-21-[4-[6-(1-pyrrolidinyl)-2-pyridinyl]-1-piperazinyl]pregna-4,9(11)-diene-3,20-dione(E)-2-butenedioate (1:1) salt]			demonstrate such activity	% of Control LD50 (arachidonic acid; 100 mg/kg, LD50 of sodium arachidonate): 138%; arachidonic acid antagonism (elevation of LD50 of arachidonic acid) (arachidonic acid): demonstrate arachidonic acid antagonism
C[C@]12CC(=O)[C@H]3[C@@H](CCC4=CC(=O)CC[C@@]43C)[C@@H]1CC[C@@H]2C(=O)CN1CCN(c2cc(N3CCCC3)nc(N3CCCC3)n2)CC1.Cl.Cl [Example 94, 21-[4-[2,6-bis(1-pyrrolidinyl)-4-pyrimidinyl]-1-piperazinyl]-pregn-4-ene-3,11,20-trione dihydrochloride]	demonstrate inhibition of interleukin 1			
CCN(CC)c1ccc(N(C)C)c(N2CCN(CC(=O)[C@@]3(O)CC[C@H]4[C@@H]5CCC6=CC(=O)CC[C@]6(C)C5=CC[C@@]43C)CC2)n1.Cl.Cl [Example 96, 21-[4-[6-(diethylamino)-3-(dimethylamino)-2-pyridinyl]-1-piperazinyl]-17α-hydroxypregna-4,9(11)-diene-3,20-dione dihydrochloride]	demonstrate inhibition of interleukin 1			
C[C@]12CC[C@H]3[C@@H](CCC4=CC(=O)C=C[C@@]43C)[C@@H]1CC[C@@H]2C(=O)CN1CCN(c2cc(N3CCCC3)nc(N3CCCC3)n2)CC1.Cl.Cl [Example 97, 21-[4-[2,6-di-(1-pyrrolidinyl)-4-pyrimidinyl]-1-piperazinyl]-pregna-1,4-diene-3,20-dione dihydrochloride]	demonstrate inhibition of interleukin 1	demonstrate inhibition of angiogenesis		
CN1CCN(CC(=O)[C@@]2(O)CC[C@H]3[C@@H]4CCC5=CC(=O)CC[C@]5(C)C4=CC[C@@]32C)CC1 [Example 101, 17α-hydroxy-21-(4-methyl-1-piperazinyl)-pregna-4,9(11)-diene-3,20-dione]	demonstrate inhibition of interleukin 1			
C[C@]12CCC(=O)C=C1CC[C@@H]1C2=CC[C@]2(C)[C@@H](CCN3CCN(c4cc(N5CCCC5)nc(N5CCCC5)n4)CC3)CC[C@@H]12.Cl [Example 104, 21-[4-(2,6-Bis(1-pyrrolidinyl)-4-pyrimidinyl)-1-piperazinyl]pregna-4,9(11)-dien-3-one hydrochloride]		demonstrate inhibition of angiogenesis	demonstrate such activity	
C[C@]12CC[C@H]3[C@@H](CCC4=CC(=O)CC[C@@]43C)[C@@H]1CC[C@@H]2CCN1CCN(c2cc(N3CCCC3)nc(N3CCCC3)n2)CC1.Cl [Example 107, 21-[4-(2,6-Bis(1-pyrrolidinyl)-4-pyrimidinyl)-1-piperazinyl]pregna-4-ene-3-one hydrochloride]			demonstrate such activity	
C[C@@]12C(=CC(=O)C[C@@H]1C#N)CC[C@@H]1C2=CC[C@]2(C)[C@@H](CCN3CCN(c4cc(N5CCCC5)nc(N5CCCC5)n4)CC3)CC[C@@H]12.Cl.Cl.Cl.O [Example 110, 21-[4-(2,6-Bis(1-pyrrolidinyl)-4-pyrimidinyl)-1-piperazinyl]-1α-cyanopregna-4,9(11)-diene-3-one-trihydrochloride, hydrate]			demonstrate such activity	
C[C@H]1C[C@H]2[C@@H]3C[C@H](F)C4=CC(=O)CC[C@]4(C)C3=CC[C@]2(C)[C@@]1(O)C(=O)CN1CCN(c2cc(N3CCCC3)nc(N3CCCC3)n2)CC1.Cl.Cl [Example 118, 6α-Fluoro-17α-hydroxy-16β-methyl-21-[4-[2,6-bis(1-pyrrolidinyl)-4-pyrimidinyl]-1-piperazinyl]-pregna-4,9(11)-diene-3,20-dione dihydrochloride]			demonstrate such activity	
C[C@@H]1C[C@H]2[C@@H]3CCC4=CC(=O)C=C[C@]4(C)[C@H]3CC[C@]2(C)[C@H]1C(=O)CN1CCN(c2cc(N3CCCC3)nc(N3CCCC3)n2)CC1.Cl.Cl [Example 121, 16α-Methyl-21-[4-[2,6-bis(1-pyrrolidinyl)-4-pyrimidinyl]-1-piperazinyl]pregna-1,4-diene-3,20-dione dihydrochloride]			demonstrate such activity	
COc1ccc2c(c1)CC[C@@H]1[C@@H]2CC[C@@]2(C)[C@H]1CC[C@]2(O)C(=O)CN1CCN(c2cc(N3CCCC3)nc(N3CCCC3)n2)CC1 [Example 125, 3,17α-Dihydroxy-21-[4-[2,6-bis(1-pyrrolidinyl)-4-pyrimidinyl]-1-piperazinyl]-19-norpregna-1,3,5(10)-trien-20-one 3-methyl ether (E)-2-butenedioate 1:1 salt]			demonstrate such activity	
C[C@]12CC[C@@H]3c4ccc(O)cc4CC[C@H]3[C@@H]1CC[C@]2(O)C(=O)CN1CCN(c2cc(N3CCCC3)nc(N3CCCC3)n2)CC1 [Example 129, 3,17α-Dihydroxy-21-[4-[2,6-bis(1-pyrrolidinyl)-4-pyrimidinyl]-1-piperazinyl]-19-norpregna-1,3,5(10)-trien-20-one(E)-2-butenedioate 1:1 salt]			demonstrate such activity	
